The values that follow come from publication PMC12320831, “Synthesis and Biological Evaluation of New Chalcogen Semicarbazone (S, Se) and Their Azole Derivatives against Chagas Disease” (Journal of Medicinal Chemistry, 2024).

Where a name gives a salt, the structure may show the parent alone. Read-outs that look alike come from different tables or passages of the source. Bounds are passed on as bounds.

Series [1] relates to T. cruzi CAI/72 strain. The experiment in a line: Antiparasitic activity in C2C12 cells infected with T. cruzi CAI/72 (image-based assay). It is filed as cell-based. The note with it: Trypanosoma cruzi. As to the method: Antiparasitic activity and cytotoxicity of compounds were determined as described before (da Silva et al., Boudreau et al.). Mouse myoblasts cell line C2C12 (ATCCCRL-1772), were maintained in high glucose (4.5 g/L glucose) Dulbecco’s modified Eagle’s medium (DMEM Gibco), supplemented with 1% penicillin–streptomycin 10,000 U/mL (Gibco) and 5% fetal bovine serum (FBS, Sigma-Aldrich) at 37 °C with 5% CO2. parasites (CAI/72 strain, DTU TcI) were maintained by weekly coinfection with C2C12 cells. For all activity assays, C2C12 cells were infected at a 10:1 parasite-to-cell ratio with culture-derived trypomastigotes, which were harvested from the supernatant of infected C2C12 cells. After adding compounds to 384-well black clear-bottom plates (Greiner cat. no. 781091), trypomastigotes (7000 parasites/well) and C2C12 cells (700 cells/well) were seeded in a total volume of 50 μL of DMEM per well in the 384-well plates. Compounds were first tested at 10 μM. […] Plates were imaged with the automated ImageXpress MicroXL microscope (Molecular Devices) and analyzed by MetaXpress software (Molecular Devices) using a custom module optimized for this assay. Infection levels (parasites per host cell) were normalized to the positive control (40 μM BNZ) and negative control (DMSO). Antiparasitic activity (EC50) ± standard deviation (SD) and host cell cytotoxicity (C2C12 viability) values were determined from the DRC using Prism software (GraphPad Software, La Jolla, CA). Every assay has three biological replicates, each in triplicates (n = 9 data points).

A short description of series [2]: Host cell cytotoxicity (C2C12 viability). Format: cell-based, Mouse. The settings on record: mouse, 10 µM, < 50% viability considered cytotoxic. On the procedure:
Antiparasitic activity and cytotoxicity of compounds were determined as described before (da Silva et al., Boudreau et al.). Mouse myoblasts cell line C2C12 (ATCCCRL-1772), were maintained in high glucose (4.5 g/L glucose) Dulbecco’s modified Eagle’s medium (DMEM Gibco), supplemented with 1% penicillin–streptomycin 10,000 U/mL (Gibco) and 5% fetal bovine serum (FBS, Sigma-Aldrich) at 37 °C with 5% CO2. parasites (CAI/72 strain, DTU TcI) were maintained by weekly coinfection with C2C12 cells. For all activity assays, C2C12 cells were infected at a 10:1 parasite-to-cell ratio with culture-derived trypomastigotes, which were harvested from the supernatant of infected C2C12 cells. After adding compounds to 384-well black clear-bottom plates (Greiner cat. no. 781091), trypomastigotes (7000 parasites/well) and C2C12 cells (700 cells/well) were seeded in a total volume of 50 μL of DMEM per well in the 384-well plates. Compounds were first tested at 10 μM. […] After 48 h at 37 °C and 5% CO2, plates were fixed with 4% formaldehyde solution for at least 1 h, washed with 1× PBS, and stained with 5 μg/mL of 4′,6-diamidino-2-phenylindole (DAPI) for at least 1 h prior to reading. Plates were imaged with the automated ImageXpress MicroXL microscope (Molecular Devices) and analyzed by MetaXpress software (Molecular Devices) using a custom module optimized for this assay. Infection levels (parasites per host cell) were normalized to the positive control (40 μM BNZ) and negative control (DMSO). Antiparasitic activity (EC50) ± standard deviation (SD) and host cell cytotoxicity (C2C12 viability) values were determined from the DRC using Prism software (GraphPad Software, La Jolla, CA). Every assay has three biological replicates, each in triplicates (n = 9 data points).

Series [3] deals with T1, recombinant Cz (cruzain) (Trypanosoma cruzi, UniProt P25779).
T1 construct: Cz was expressed and purified as described in da Silva et al; made in house
T1 sequence (P25779 123-337 limits assumed): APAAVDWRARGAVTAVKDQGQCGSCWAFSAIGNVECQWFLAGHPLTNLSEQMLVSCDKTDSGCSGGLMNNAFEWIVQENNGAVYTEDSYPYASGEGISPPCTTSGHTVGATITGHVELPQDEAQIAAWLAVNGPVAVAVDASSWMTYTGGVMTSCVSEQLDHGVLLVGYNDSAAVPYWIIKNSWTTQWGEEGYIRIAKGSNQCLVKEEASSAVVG
The experiment in a line: biochemical. The note with it: read-out: Cz inhibition (%), 10 µM. As to the method:
The screening assay was performed using 1 nM of Cz diluted in 0.1 M sodium acetate pH 5.5, 1 mM dithiothreitol (DTT), and 0.01% Triton X-100. Cz was expressed and purified as described in da Silva et al. The reaction starts after 10 min incubating the enzyme with the compounds (10 μM), when adding 2.5 μM of the substrate Z-FR-AMC final concentration (Z-Phe-Arg-amidomethylcoumarin, Sigma-Aldrich, C9521) diluted in the same assay buffer (final volume of 30 μL). The experiment was performed for 10 min. […] The DRC was performed with at least nine different concentrations of the inhibitors, diluted by 2-fold serial dilution, ranging from […] to 10 μM.
All experiments were accomplished in a 384-well black microplate, using a Synergy HTX (Biotek) plate reader at 25 °C with absorption/emission wavelengths of 360/460 nm. All assays were performed in triplicate wells and DMSO was used as a vehicle control. Enzymatic activity was measured and normalized to DMSO controls, and the inhibitor E-64 (10 μM) was used as a positive control for all assays. All experiments were performed in triplicates, with at least two independent assays (n = 6 data points). IC50 values were determined through nonlinear regression. Obtained data were treated and analyzed using GraphPad Prism 9.0 (GraphPad Software, La Jolla, California).

[4] abbreviates: 10 µM, C2C12 infected cells, read-out: Anti-Tc CAI/72 activity (%).
[5] abbreviates: C2C12 myoblast cells infected with trypomastigotes.
Setting [6] is: C2C12, read-out: Anti-Tc CAI/72 activity (%).

As for `C/C(=N\Nc1nc(C)cs1)c1ccc(C)cc1` [Compound S2a, (E)-4-Methyl-2-(2-(1-(4-tolyl)ethylidene)hydrazineyl)thiazole Hydrochloride], the inhibition at 10 µM in series [1] (setting [4]) worked out at 12.5%; in series [3], 36.8%. This molecule returned a viability at 48 h, 10 µM in series [2] (setting [5]) of more than 100%.

For `COc1ccc(/C(C)=N/Nc2nc(C)cs2)cc1` [Compound S2b, (E)-2-(2-(1-(4-Methoxyphenyl)ethylidene)hydrazineyl)-4-methylthiazole Hydrochloride], the inhibition at 10 µM in series [1] (setting [4]) worked out at 23.5%; in series [3], 37.5%. For the same molecule, in series [2] (setting [5]), the viability at 48 h, 10 µM is more than 100%.

With `C/C(=N\Nc1nc(C)cs1)c1ccc(C#N)cc1` [Compound S2e, (E)-4-(1-(2-(4-Methylthiazol-2-yl)hydrazineylidene)ethyl)benzonitrile Hydrochloride], the inhibition at 10 µM in series [1] (setting [4]) stood at 22.4%; in series [3] it was 89.8%. This molecule displayed a viability at 48 h, 10 µM in series [2] (setting [5]) of more than 100%.

For the molecule `C/C(=N\Nc1nc(C)cs1)c1ccc(Br)cc1` [Compound S2f, (E)-2-(2-(1-(4-Bromophenyl)ethylidene)hydrazineyl)-4-methylthiazole hydrochloride], the inhibition at 10 µM in series [1] (setting [4]) stood at 1.1%; in series [3], 53%. Moreover, the viability at 48 h, 10 µM in series [2] (setting [5]) was more than 100%.

Take `COc1cccc(/C(C)=N/Nc2nc(C)cs2)c1` [Compound S2g, (E)-2-(2-(1-(3-Methoxyphenyl)ethylidene)hydrazineyl)-4-methylthiazole hydrochloride]: the inhibition at 10 µM in series [1] (setting [4]) was found to be 40.6%; in series [3] it was 45.1%. Also, in series [2] (setting [5]), the viability at 48 h, 10 µM is more than 100%.

Turning to `C/C(=N\Nc1nc(C)cs1)c1ccc(F)c(F)c1` [Compound S2j, (E)-2-(2-(1-(3,4-Difluorophenyl)ethylidene)hydrazineyl)-4-methylthiazole Hydrochloride], the inhibition at 10 µM was 28.3% in series [1] (setting [4]) and 79.4% in series [3]. In series [2] (setting [5]), the viability at 48 h, 10 µM is more than 100%.

Turning to `COc1ccc(/C(C)=N/Nc2nc(C)cs2)c(OC)c1` [Compound S2k, (E)-2-(2-(1-(2,4-Dimethoxyphenyl)ethylidene)hydrazineyl)-4-methylthiazole Hydrochloride], the results for the inhibition at 10 µM in series [1] (setting [4]) and in series [3] were 46% and 34.2%, respectively. The same molecule came in with a viability at 48 h, 10 µM in series [2] (setting [5]) of more than 100%.

With `C/C(=N\Nc1nc(C)cs1)c1ccsc1` [Compound S2l, (E)-4-Methyl-2-(2-(1-(thiophen-3-yl)ethylidene)hydrazineyl)thiazole Hydrochloride], the inhibition at 10 µM in series [1] (setting [4]) was 19.5%; in series [3], 31.6%. In series [2] (setting [5]), the viability at 48 h, 10 µM was more than 100%.

For the molecule `C/C(=N\Nc1nc(C)cs1)c1csc2ccccc12` [Compound S2o, (E)-2-(2-(1-(Benzo[b]thiophen-3-yl)ethylidene)hydrazineyl)-4-methylthiazole Hydrochloride], the inhibition at 10 µM in series [1] (setting [4]) was found to be 45.7%; in series [3] it was 27.9%. The same molecule had a viability at 48 h, 10 µM in series [2] (setting [5]) of more than 100%.

On to `C/C(=N\Nc1nc(C)cs1)c1cc2ccccc2o1` [Compound S2p, (E)-2-(2-(1-(Benzofuran-2-yl)ethylidene)hydrazineyl)-4-methylthiazole Hydrochloride], for which the figures for the inhibition at 10 µM in series [1] (setting [4]) and in series [3] were 31.4% and 74.3%, respectively. Also, the viability at 48 h, 10 µM in series [2] (setting [5]) was more than 100%.

As for `C/C(=N\Nc1nc(C)cs1)C12CC3CC(CC(C3)C1)C2` [Compound S2q, 2-(2-((E)-1-((3s)-Adamantan-1-yl)ethylidene)hydrazineyl)-4-methylthiazole Hydrochloride], the inhibition at 10 µM in series [1] (setting [4]) came to 40.5%; in series [3] it was 30.5%. Moreover, in series [2] (setting [5]), the viability at 48 h, 10 µM is more than 100%.

Take `C/C(=N\NC(N)=[Se])c1ccc(C)cc1` [Se1a, (E)-2-(1-(4-Tolyl)ethylidene)hydrazine-1-carboselenoamide]: the inhibition at 10 µM in series [1] (setting [4]) was found to be 21.6%; in series [3], 98.2%. Also, the viability at 48 h, 10 µM in series [2] is 34.1%.

Regarding `COc1ccc(/C(C)=N/NC(N)=[Se])cc1` [Se1b, (E)-2-(1-(4-Methoxyphenyl)ethylidene)hydrazine-1-carboselenoamide], the inhibition at 10 µM turned out to be 30% in series [1] (setting [6]) and 98.9% in series [3]. This molecule came in with a viability at 48 h, 10 µM in series [2] of 40.9%.

As to `COc1cccc(/C(C)=N/NC(N)=[Se])c1` [Se1g, (E)-2-(1-(3-Methoxyphenyl)ethylidene)hydrazine-1-carboselenoamide], the values for the inhibition at 10 µM in series [1] (setting [6]) and in series [3] were 7.03% and 101%, respectively. The viability at 48 h, 10 µM in series [2] stood at 31.1%.

With `C/C(=N\NC(N)=[Se])c1ccsc1` [Se1l, (E)-2-(1-(Thiophen-3-yl)ethylidene)hydrazine-1-carboselenoamide], the inhibition at 10 µM was determined as 30.5% in series [1] (setting [6]) and 90.1% in series [3]. In series [2], the viability at 48 h, 10 µM turned out to be 38.1%.

`C/C(=N\NC(N)=[Se])c1csc2ccccc12` [Se1o, (E)-2-(1-(Benzo[b]thiophen-3-yl)ethylidene)hydrazine-1-carboselenoamide]: the inhibition at 10 µM in series [1] (setting [6]) came out at 4.32%; in series [3] it was 93.7%. The molecule further registered a viability at 48 h, 10 µM in series [2] of 31.4%.

With `C/C(=N\NC(N)=[Se])c1cc2ccccc2o1` [Se1p, (E)-2-(1-(Benzofuran-2-yl)ethylidene)hydrazine-1-carboselenoamide], the inhibition at 10 µM was found to be 28.8% in series [1] (setting [6]) and 102% in series [3]. Further, the viability at 48 h, 10 µM in series [2] came to 39.4%.

On to `C/C(=N\NC(N)=[Se])C12CC3CC(CC(C3)C1)C2` [Se1q, (E)-2-(1-((3r,5r,7r)-Adamantan-1-yl)ethylidene)hydrazine-1-carboselenoamide], for which the inhibition at 10 µM in series [1] (setting [6]) worked out at 16.2%; in series [3] it was 83.8%. In series [2], the viability at 48 h, 10 µM came to 78.6%.

With `C/C(=N\Nc1nc(C)c[se]1)c1ccc(C)cc1` [Se2a, (E)-4-Methyl-2-(2-(1-(4-tolyl)ethylidene)hydrazineyl)-1,3-selenazole Hydrochloride], the results for the inhibition at 10 µM in series [1] (setting [6]) and in series [3] were 11.1% and 28.6%, respectively. In series [2], the viability at 48 h, 10 µM came to 91.9%.

Take `COc1ccc(/C(C)=N/Nc2nc(C)c[se]2)cc1` [Se2b, (E)-2-(2-(1-(4-Methoxyphenyl)ethylidene)hydrazineyl)-4-methyl-1,3-selenazole Hydrochloride]: the inhibition at 10 µM in series [1] (setting [6]) came to 12.1%; in series [3], 21.6%. Also, the viability at 48 h, 10 µM in series [2] was 94%.

Turning to `C/C(=N\Nc1nc(C)c[se]1)c1ccc(C(F)(F)F)cc1` [Se2d, (E)-4-Methyl-2-(2-(1-(4-(trifluoromethyl)phenyl)ethylidene)hydrazineyl)-1,3-selenazole Hydrochloride], the inhibition at 10 µM in series [1] (setting [6]) worked out at 27.9%; in series [3], 95.2%. For the same molecule, the viability at 48 h, 10 µM in series [2] came to 96.1%.
